Measured values: patent US20160326098A1, “Pharmaceutically Active Compound for Use as Anti-inflammatory Agent” (Pax Forschung GmbH, priority 2013, published 2016)

Experiments:
Type in all cases: in vivo
xanthine oxidase enzyme = assay: Xanthine oxidase enzyme activity in tissue, rats with TNBS-induced colitis; settings: gastric and colon tissue, 1.11 mmol/kg, FIGS. 33a/33b
Experimental: (§1) Colonic inflammation was induced by intracolonic administration of TNBS (2,4,6-trinitrobenzenesulfonic acid) (40 mg/kg in 0.25 ml of 25% aqueous ethanol) through an 8-cm-long soft plastic catheter under transient diethylether anesthesia. In the sham-operated groups, only the vehicle for TNBS was administered. The animals were deprived of food, but not water, for 12 h before the enemas.
The XOR activity was determined in the ultrafiltered, concentrated supernatant by fluorometric kinetic assay based on the conversion of pterine to isoxanthopterine in the presence (total XOR) or absence (xanthine oxidase activity) of the electron acceptor methylene blue.
(§2) The above-described clinical studies were repeated with animals having colitis which was induced as described above. […] Two days after the enema the effects of the treatment were determined by measurement of body weight, blood gas analysis and biopsy. […] Surgery was performed to allow registration of the hemodynamic parameters at 1 h intervals for 6 h (cardiac output [CO] data were measured only at the end of the experiments). […] In addition, fluorescence confocal endomicroscopy was performed to examine the microvasculature and morphologic changes of the mucosa of the distal colon, and full-thickness tissue samples and venous blood samples were taken to determine the biochemical changes in the colon and plasma.

myeloperoxidase (MPO) = assay: Tissue myeloperoxidase activity, mice with gastric injury without inflammation; settings: gastric and duodenal tissue, one day after treatment with 1.11 mmol/kg, vs control group A, FIGS. 5a/5b
Experimental: […] The homogenate was centrifuged at 4° C. for 20 minutes at 24,000 g, and the supernatant was loaded into centrifugal tubes (Amicon Centricon-100; 100,000-molecular-weight cutoff ultrafilter, Millipore Corporation, Bedford, Mass.). The activity of myeloperoxidase (MPO) was measured on the pellet of the homogenate.
The activity of MPO as a marker of tissue leukocyte infiltration was measured on the pellet of the homogenate. Briefly, the pellet was resuspended in K3PO4 buffer (0.05 M; pH 6.0) containing 0.5% […]. […] The reaction led to the hydrogen peroxide-dependent oxidation of tetramethylbenzidine, which could be detected spectrophotometrically at 450 nm (UV-1601 spetrophotometer; Shimadzu, Kyoto, Japan). Myeloperoxidase activities were measured at 37° C.; the reaction was stopped after 5 minutes by the addition of 0.2 ml of H2SO4 (2 M), and the resulting data were referred to the protein content.
First experiments regarding the effect of the compound of formula (I) and a pharmaceutical composition comprising the compound of formula (I) (clear aqueous solution of compound of formula (I) at pH 4.8), respectively, on gastric injury without inflammation were conducted on mice. […] The effects were determined by way of measurement of body weight, blood gas analysation and biopsy. […]

colon inflammation = assay: Macroscopic score of colon inflammation, rats with TNBS-induced colitis; settings: 1.11 mmol/kg, Morris score 0-4, untreated colitis group class 3 to 4, FIG. 29
Experimental: Colonic inflammation was induced by intracolonic administration of TNBS (2,4,6-trinitrobenzenesulfonic acid) (40 mg/kg in 0.25 ml of 25% aqueous ethanol) through an 8-cm-long soft plastic catheter under transient diethylether anesthesia. In the sham-operated groups, only the vehicle for TNBS was administered. The animals were deprived of food, but not water, for 12 h before the enemas. […] The other animals only received the respective solvent again. Two days after the enema the effects of the treatment were determined by measurement of body weight, blood gas analysis and biopsy. The animals were anesthetized two days after colitis induction. Surgery was performed to allow registration of the hemodynamic parameters at 1 h intervals for 6 h (cardiac output [CO] data were measured only at the end of the experiments). Intravital videomicroscopy was performed at the end of the experiments to visualize the serosal microcirculation 3 cm distal from the cecum. In addition, fluorescence confocal endomicroscopy was performed to examine the microvasculature and morphologic changes of the mucosa of the distal colon, and full-thickness tissue samples and venous blood samples were taken to determine the biochemical changes in the colon and plasma. […]

[1] = tested on: High mobility group box protein 1 (HMGB-1); assay: Plasma high mobility group protein B1, rats with gastric injury without inflammation; settings: 1.11 mmol/kg, day 3, vs control group H, FIG. 22
Experimental: High mobility group box protein 1 (HMGB-1) measurements in plasma:
Blood samples were drawn into chilled polypropylene tubes containing EDTA (1 mg/ml) and were centrifuged at 1200 g for 10 min at 4° C. The plasma samples were then collected and stored at −70° C. until assay. Plasma concentration of HMGB-1 was measured by a commercially available HMGB-1 ELISA kit (Shino-Test Corporation, Kanagawa, Japan).
Further experiments regarding the effect of a compound of formula (I) and a pharmaceutical composition comprising a compound of formula (I), respectively, on gastric injury without inflammation were conducted on rats. 15 animals were randomly allocated into three groups. Group H (n=5) served as sham-operated controls. Samples of all animals were drawn on day 1 of the clinical tests. On day 2 the animals of group I (n=5) were force-fed acetylsalicylic acid (ASS) (1.11 mmol/kg body weight). Group K (n=5) was force-fed 1.11 mmol/kg body weight of the compound according to the invention. […] Fluorescence confocal endomicroscopy was performed to examine the microvasculature and morphologic changes of the mucosa of the distal colon, and full-thickness tissue samples and venous blood samples were taken to determine the biochemical changes in the colon and plasma. The effects were determined by way of measurement of body weight, blood gas analysation and biopsy. […]

nitrite/nitrate (NOx) = assay: Nitrite/nitrate level in blood, rats with TNBS-induced colitis; settings: 1.11 mmol/kg, vs groups L and M, FIG. 34
Experimental: as §1
The levels of plasma nitrite/nitrate (NOx), stable end products of NO were measured by the Griess reaction. This assay depends on the reduction of nitrate to nitrite, which is then converted into a colored azo dye compound that is detected spectrophotometrically at 540 nm.
as §2

[2] = Body weight, rats with TNBS-induced colitis; settings: two days after enema, one day after 1.11 mmol/kg, FIG. 27
Experimental: as §1, §2

## CC(=O)Oc1ccccc1C(=O)O [ASS, acetylsalicylic acid, reference compound]
Xanthine oxidase enzyme
  activity of xanthine oxidase enzyme: only a slight decrease in activity
Myeloperoxidase (MPO)
  myeloperoxidase (MPO) activity: increased
Colon inflammation
  macroscopic score of colon inflammation: slightly less severe symptoms
[1]
  concentration of the high mobility group protein B1 in the plasma: increased
nitrite/nitrate (NOx)
  nitrite/nitrate level in the blood: increased nitrite/nitrate level
[2]
  loss of body weight: severe loss in body weight

## CC(=O)Oc1ccccc1C(=O)NC(CO)(CO)CO [compound according to the invention]
Xanthine oxidase enzyme
  activity of xanthine oxidase enzyme: enzyme activity comparable to that of healthy animals
Myeloperoxidase (MPO)
  myeloperoxidase (MPO) activity: does not further enhance the inflammatory processes
Colon inflammation
  macroscopic score of colon inflammation: only showed increased erythema
[1]
  concentration of the high mobility group protein B1 in the plasma: comparable with the concentration in the plasma of the animals in the control group H
nitrite/nitrate (NOx)
  nitrite/nitrate level in the blood: nitrite/nitrate levels comparable to those of healthy animals
[2]
  loss of body weight: No weight loss
